# Results taken from patent publication US10016515B2, “DMA, a bis-benzimidazole, confers radioprotection to the intestine via Akt/NFκB dual pathway activation” (Jawaharlal Nehru University, priority 2016, dated 2018).
# Where two headings read alike, the source gives them in different places.
# Tests used:
# [1] = test system: Balb/c mice; type: in vivo; conditions: 400 mg/kg oral before 8Gy TBI
# [2] = test system: Balb/c mice spleen; assay: Endogenous spleen colony forming assay; type: in vivo, mouse
# Procedure: Group 1, sham control (normal saline treated); Group 2, DMA treated (200 mg/kg bw); Group 3, radiation control (whole body exposure to 8Gy); Group 4, treated with DMA (200 mg/kg bw) prior to whole body exposure to 8Gy. Mice (6 animals each) were irradiated, 2 h post-administration of DMA. The mice were sacrificed on day 10 and spleens were removed, blotted free of blood, weighed and the spleen index was calculated [spleen index=(spleen weight/body weight)×100]. Subsequently spleens were fixed in Bouin's fixative for 15 min and the number of macroscopic spleen cell colonies was counted manually.
# [3] = Tissue bio-distribution and tissue pharmacokinetics of DMA; type: in vivo, mouse; conditions: for concentration at 2 h / concentration at 4 h / concentration at 6 h / concentration at 16 h / concentration at 24 h / concentration at 1 h: Balb/c, mouse
# Procedure: Tissue samples were collected from the same mice from which blood samples were collected in both doses of DMA. Lung, liver, kidney, intestine, heart, spleen, brain were dissected and rinsed with phosphate buffer saline (PBS) and dried on blotting paper. 100 mg of tissue sample was homogenized for 20 s in chilled acetronitrile and water and further 700 μl chilled acetronitrile was added. The sample was centrifuged at 14000 rpm for 10 min and clear supernatant was collected for analysis on HPLC-MS/MS system.
# A standard DMA calibration from 1-1000 ng/ml with internal standard (20 ng/ml) was quantified. Sample analysis was performed on positive ionization mode LC-MS/MS with multiple reactions monitoring (MRM, m/z Q1/Q3) of DMA (m/z 235.1/412.0, retention time (RT) 5.3 min) and internal standard (m/z 227.1/396.0, RT 6.5 min) (Agilent 6410 series). A gradient method was employed to analyze the plasma samples using mobile phase A (0.1% formic acid in water) and mobile phase B (methanol). The B % was set as 30 (0 min), 90 (10-14 min), 30 (14-24 min) with flow rate of 0.3 ml/min. An injection volume of 10 μl was used for analysis.
# Peak tissue concentration (Cmax) of DMA and time to reach the Cmax (tmax) were read directly from the raw data by visual examination of mean tissue concentration-time profile. The tissue concentration-time data following oral dose were subjected to one-, two- and three-compartmental models using WinNonlin program (version 6.3; Certara Inc, Missouri, USA) to calculate the pharmacokinetic parameters. The pharmacokinetic models were compared according to maximal correlation between observed and predicted concentration, minimal sum of squared residuals, Akaike Information Criterion (AIC) and Schwarz Bayesian Criterion (SBC). However, the tissue concentration-time data following intravenous administration were subjected to non-compartmental approach.
# [4] = intestine, iv, i.v. 50 mg/kg, read-out: Tissue DMA concentration, Intestine
# [5] = intestine, Oral 100 mg/kg, read-out: Tissue DMA concentration, Intestine
structure (smiles),measurement,setting,value
"COc1ccc(-c2nc3cc(-c4nc5cc(N6CCN(C)CC6)ccc5[nH]4)ccc3[nH]2)cc1OC [DMA, 5-(4-methylpiperazin-1-yl)-2-[2′-(3,4-dimethoxyphenyl)-5′-benzimidazolyl]benzimidazole]",30-days survival rate,[1],90%
same,Spleen index,"[2]; 200 mg/kg oral before 8Gy, day 10",0.33±0.02
same,Spleen index,"[2]; DMA treatment only, 200 mg/kg",0.41±0.05
same,Endogenous colony forming units,"[2]; DMA+Radiation, 10th day post-irradiation",11.25±1.7
same,Concentration achieved in intestine,[3]; 50 mg/kg i.v.,1260 µg/g
same,"Small intestine concentration, i.v. as compared to oral route",[3]; 50 mg/kg i.v. vs 100 mg/kg oral,11.88 fold
same,"AUC, Kidney",[3]; 50 mg/kg intravenous,945577.2 ng·h/g
same,"AUC, Liver",[3]; 50 mg/kg intravenous,889040 ng·h/g
same,"AUC, Lung",[3]; 50 mg/kg intravenous,2674622.2 ng·h/g
same,"AUC, Small Intestine",[3]; 50 mg/kg intravenous,220072.6 ng·h/g
same,"AUC, Spleen",[3]; 50 mg/kg intravenous,145191 ng·h/g
same,"C1 hr, Kidney",[3]; 50 mg/kg intravenous,14900 ng/g
same,"C1 hr, Liver",[3]; 50 mg/kg intravenous,41600 ng/g
same,"C1 hr, Lung",[3]; 50 mg/kg intravenous,109000 ng/g
same,"C1 hr, Small Intestine",[3]; 50 mg/kg intravenous,1260000 ng/g
same,"Clearance, Kidney",[3]; 50 mg/kg intravenous,17.9 g/h/kg
same,"Clearance, Liver",[3]; 50 mg/kg intravenous,39.5 g/h/kg
same,"Clearance, Small Intestine",[3]; 50 mg/kg intravenous,15.0 g/h/kg
same,"Clearance, Spleen",[3]; 50 mg/kg intravenous,89.3 g/h/kg
same,"Vd, Kidney",[3]; 50 mg/kg intravenous,1944.8 g/kg
same,"Vd, Liver",[3]; 50 mg/kg intravenous,668.7 g/kg
same,"Vd, Lung",[3]; 50 mg/kg intravenous,552.1 g/kg
same,"Vd, Small Intestine",[3]; 50 mg/kg intravenous,40360.3 g/kg
same,"Vd, Spleen",[3]; 50 mg/kg intravenous,3857.9 g/kg
same,"Vss, Kidney",[3]; 50 mg/kg intravenous,1623.5 g/kg
same,"Vss, Liver",[3]; 50 mg/kg intravenous,496.11 g/kg
same,"Vss, Lung",[3]; 50 mg/kg intravenous,10.72 g/kg
same,"Vss, Small Intestine",[3]; 50 mg/kg intravenous,4.9 g/kg
same,"Vss, Spleen",[3]; 50 mg/kg intravenous,4114.6 g/kg
same,"AUC, Kidney",[3]; 100 mg/kg oral dose,10874.29 ng·h/g
same,"AUC, Liver",[3]; 100 mg/kg oral dose,20717.3 ng·h/g
same,"AUC, Small Intestine",[3]; 100 mg/kg oral dose,361353.4 ng·h/g
same,"AUC, Spleen",[3]; 100 mg/kg oral dose,8353.819 ng·h/g
same,"Cl/F, Kidney",[3]; 100 mg/kg oral dose,9190 g/h/kg
same,"Cl/F, Liver",[3]; 100 mg/kg oral dose,4000 g/h/kg
same,"Cl/F, Small Intestine",[3]; 100 mg/kg oral dose,277 g/h/kg
same,"Cl/F, Spleen",[3]; 100 mg/kg oral dose,11000 g/h/kg
same,"Cmax, Kidney",[3]; 100 mg/kg oral dose,1530 ng/g
same,"Cmax, Liver",[3]; 100 mg/kg oral dose,2230 ng/g
same,Maximum concentration in small intestine,"[3]; 100 mg/kg oral, at 2 h",106 µg/g
same,Maximum concentration in spleen,"[3]; 100 mg/kg oral, at 2 h",1.31 µg/g
same,Maximum concentration in kidney,"[3]; 100 mg/kg oral, at 4 h",1.53 µg/g
same,Maximum concentration in liver,"[3]; 100 mg/kg oral, at 4 h",2.23 µg/g
same,concentration at 2 h,[3]; [4],70400 ng/g
same,concentration at 4 h,[3]; [4],59200 ng/g
same,concentration at 6 h,[3]; [4],29700 ng/g
same,concentration at 16 h,[3]; [4],2530 ng/g
same,concentration at 24 h,[3]; [4],1710 ng/g
same,concentration at 1 h,"[3]; intestine, Oral 100 mg/kg, 1 h, read-out: Tissue DMA concentration, Intestine",675 ng/g
same,concentration at 2 h,[3]; [5],106000 ng/g
same,concentration at 4 h,[3]; [5],30200 ng/g
same,concentration at 6 h,[3]; [5],28700 ng/g
same,concentration at 16 h,[3]; [5],612 ng/g
same,concentration at 24 h,[3]; [5],410 ng/g
same,concentration at 1 h,"[3]; kidney, intravenous, 50 mg/kg i.v., read-out: Concentration achieved in kidney",14900 ng/g
same,concentration at 1 h,"[3]; kidney, iv, i.v. 50 mg/kg, 1 h, read-out: Tissue DMA concentration, Kidney",14900 ng/g
same,concentration at 2 h,"[3]; kidney, iv, i.v. 50 mg/kg, read-out: Tissue DMA concentration, Kidney",8370 ng/g
